Three compounds from ChEMBL document CHEMBL5252651, “Discovery of Bioactive Metabolites by Acidic Stress to a Geldanamycin Producer, Streptomyces samsunensis” (J Nat Prod, 2023) can be followed below.

The subject of this assay is Staphylococcus aureus. Description: Antivirulence activity against methicillin-resistant Staphylococcus aureus USA300 LAC assessed as change in Hla transcriptional level at 10 ug/ml incubated for 8 to 16 hrs by qRT-PCR analysis. The format is functional, organism-based. As to conditions: dose 10.0 µg/ml, time 8-16 hrs.

Activity calls are given as the source filed them. The calls are words filed in the database; no cut-off is given here.

For the compound `CO[C@H]1/C=C\C=C(/C)C(=O)NC2=CC(=O)C(O)=C(C[C@@H](C)C[C@H](OC)[C@H](O)[C@@H](C)/C=C(\C)[C@@H]1OC(N)=O)C2=O`, the result was inactive.

Consider `COC1=C2C[C@@H](C)C[C@H](OC)[C@H](O)[C@@H](C)/C=C(\C)[C@H](OC(N)=O)[C@@H](OC)/C=C\C=C(/C)C(=O)NC(=CC1=O)C2=O`, for which the outcome was inactive.

Consider `CO[C@@H](C[C@H](C)Cc1cc(O)cc(NC(C)=O)c1)[C@H](O)[C@H](C)C(=O)O`, for which the outcome was inactive.
